Measured values as given in PMC9741201, “X-ray Structures and Computational Studies of Two Bioactive 2-(Adamantane-1-carbonyl)-N-substituted Hydrazine-1-carbothioamides” (Molecules, 2022).
Read-outs that look alike come from different tables or passages of the source.

Target: urease (Jack bean) (Canavalia ensiformis, UniProt P07374)
Experiment: in vitro urease inhibition, indophenol method
Format: biochemical

urease (Jack bean), sequence (P07374 whole entry, looked up): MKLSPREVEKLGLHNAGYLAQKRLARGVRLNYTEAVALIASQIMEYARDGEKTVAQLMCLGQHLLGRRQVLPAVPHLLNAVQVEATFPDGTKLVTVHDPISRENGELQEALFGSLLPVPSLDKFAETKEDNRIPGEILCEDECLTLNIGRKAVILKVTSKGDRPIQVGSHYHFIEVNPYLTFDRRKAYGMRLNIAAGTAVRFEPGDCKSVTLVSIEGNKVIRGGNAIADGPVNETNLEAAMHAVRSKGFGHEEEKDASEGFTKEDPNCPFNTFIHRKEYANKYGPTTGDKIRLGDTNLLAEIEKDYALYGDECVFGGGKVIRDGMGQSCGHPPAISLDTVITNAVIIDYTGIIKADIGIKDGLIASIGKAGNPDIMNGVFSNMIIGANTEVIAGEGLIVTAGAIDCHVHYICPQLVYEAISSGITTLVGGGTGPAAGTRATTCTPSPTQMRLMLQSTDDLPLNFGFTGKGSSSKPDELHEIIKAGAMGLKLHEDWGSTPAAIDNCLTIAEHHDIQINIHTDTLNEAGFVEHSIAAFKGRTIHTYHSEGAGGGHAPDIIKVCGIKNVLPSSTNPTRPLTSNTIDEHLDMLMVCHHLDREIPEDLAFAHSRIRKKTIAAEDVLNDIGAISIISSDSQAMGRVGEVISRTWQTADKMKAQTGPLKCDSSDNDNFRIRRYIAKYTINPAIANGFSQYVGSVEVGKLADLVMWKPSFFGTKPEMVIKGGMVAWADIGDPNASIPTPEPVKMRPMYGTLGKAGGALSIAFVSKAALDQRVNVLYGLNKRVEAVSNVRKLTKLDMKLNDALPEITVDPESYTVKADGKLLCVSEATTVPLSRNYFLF

| SMILES | IC50 (read-out: IC50 ± SEM (μM) *) [µM] | IC50 [µM] |
| --- | --- | --- |
| O=C(NNC(=S)NC1CCCCC1)C12CC3CC(CC(C3)C1)C2 [compound 2, 2-(Adamantane-1-carbonyl)-N-cyclohexylhydrazine-1-carbothioamide] | 2.44 ± 0.11 | – |
| CC(C)(C)NC(=S)NNC(=O)C12CC3CC(CC(C3)C1)C2 [compound 1, 2-(Adamantane-1-carbonyl)-N-(tert-butyl)hydrazine-1-carbothioamide] | – | 1.2 ± 0.07 |
